Reference: patent publication US20260132132A1, “3A,4,5,6-TETRAHYDRO-1 H-PYRAZOLO[3,4-C]PYRIDIN-7(7AH)-ONE DERIVATIVES AS FACTOR XIIA INHIBITORS” (KALVISTA PHARMACEUTICALS LIMITED, priority 2022, published 2026)

Experiments:
[1] = biological target: T1, Human Factor XIIa (hFXIIa) (Homo sapiens, UniProt P00748); test: Determination of Human Factor XIIa (hFXIIa) inhibition, fluorogenic substrate IC50 assay; assay type: biochemical; details: fluorogenic substrate H-DPro-Phe-Arg-AFC at Km, 25° C., read-out: Human FXIIa IC50
T1 construct: purchased Enzyme Research Laboratories
T1 sequence (P00748 373-615 limits assumed): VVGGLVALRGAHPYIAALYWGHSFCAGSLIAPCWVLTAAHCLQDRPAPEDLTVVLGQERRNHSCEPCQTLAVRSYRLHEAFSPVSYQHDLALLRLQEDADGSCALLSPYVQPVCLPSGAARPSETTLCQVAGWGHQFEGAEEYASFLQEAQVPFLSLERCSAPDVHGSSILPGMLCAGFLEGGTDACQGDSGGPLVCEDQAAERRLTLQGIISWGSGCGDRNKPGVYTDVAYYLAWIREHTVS
T1 sequence (P00748 20-372 partner limits assumed): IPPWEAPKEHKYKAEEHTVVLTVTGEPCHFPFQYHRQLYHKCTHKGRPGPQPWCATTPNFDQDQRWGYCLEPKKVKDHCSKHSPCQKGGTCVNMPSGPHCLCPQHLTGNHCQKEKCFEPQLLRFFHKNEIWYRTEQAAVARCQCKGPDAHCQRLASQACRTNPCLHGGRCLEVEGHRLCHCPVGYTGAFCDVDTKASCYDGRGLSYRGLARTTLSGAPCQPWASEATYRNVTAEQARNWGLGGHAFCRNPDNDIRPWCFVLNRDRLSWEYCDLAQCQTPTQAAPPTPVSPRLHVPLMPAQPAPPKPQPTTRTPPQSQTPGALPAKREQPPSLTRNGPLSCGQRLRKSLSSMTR
Method: Determination of Human Factor XIIa (hFXIIa) inhibition
The Km for the cleavage of the substrate by hFXIIa was determined by standard transformation of the Michaelis-Menten equation, with subsequent inhibition assays performed at substrate Km concentration.

[2] = biological target: FXa (Homo sapiens, UniProt P00742); test: Related protease inhibition: FXa, fluorogenic substrate; assay type: biochemical; details: fluorogenic substrate at Km, 25° C.; H1-H3 = % activity at 40 μM
Chain of FXa (P00742 235-488 limits assumed): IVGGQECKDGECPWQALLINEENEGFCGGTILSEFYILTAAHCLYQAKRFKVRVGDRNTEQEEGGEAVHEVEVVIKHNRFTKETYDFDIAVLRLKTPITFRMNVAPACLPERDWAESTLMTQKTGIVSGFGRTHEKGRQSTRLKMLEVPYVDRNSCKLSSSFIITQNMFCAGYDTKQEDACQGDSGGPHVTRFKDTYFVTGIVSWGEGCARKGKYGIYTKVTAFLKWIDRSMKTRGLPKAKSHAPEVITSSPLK
Chain of FXa (P00742 41-179 partner limits assumed): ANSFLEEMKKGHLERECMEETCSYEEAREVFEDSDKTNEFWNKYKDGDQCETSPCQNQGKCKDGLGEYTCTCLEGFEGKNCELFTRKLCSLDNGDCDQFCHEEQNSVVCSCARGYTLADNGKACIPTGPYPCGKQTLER
Method: Human serine protease enzyme Plasma Kallikrein, KLK1, FXa, Plasmin, Thrombin and Trypsin were assayed for enzymatic activity using an appropriate fluorogenic substrate at Km concentration, FXIa at fixed substrate concentration of 100 μM and various concentrations of the test compound.

Row | IC50 [1] [µM] | IC50 [2] [µM] | SMILES
1 | 0.01 to 0.1 | 10 to 40 | CCN1CCc2cc(F)c(N3CCc4c(C(=O)NCC5CC5)nn(-c5cccc(Cl)c5)c4C3=O)cc2C1 [Example 1079, 1-(3-chlorophenyl)-N-(cyclopropylmethyl)-6-(2-ethyl-6-fluoro-1,2,3,4-tetrahydroisoquinolin-7-yl)-7-oxo-4,5,6,7-tetrahydro-1H-pyrazolo[3,4-c]pyridine-3-carboxamide]
2 | 0.3 to 1 | 3 to 10 | Cc1ccncc1C(=O)NCc1nn(-c2cccc(Cl)c2)c2c(=O)n(-c3ccc4c(c3)CN(CCO)CC4)c(C)nc12 [Example 3010, N-((1-(3-chlorophenyl)-6-(2-(2-hydroxyethyl)-1,2,3,4-tetrahydroisoquinolin-7-yl)-5-methyl-7-oxo-6,7-dihydro-1H-pyrazolo[4,3-d]pyrimidin-3-yl)methyl)-4-methylnicotinamide]
3 | 0.1 to 0.3 | 10 to 40 | CC(=O)N1CCCc2ccc(N3CCc4c(C(=O)NCc5cnccc5C)nn(-c5cccc(Cl)c5)c4C3=O)cc21 [Example 1314, 6-(1-acetyl-1,2,3,4-tetrahydroquinolin-7-yl)-1-(3-chlorophenyl)-N-((4-methylpyridin-3-yl)methyl)-7-oxo-4,5,6,7-tetrahydro-1H-pyrazolo[3,4-c]pyridine-3-carboxamide]
4 | 0.3 to 1 | > 40 | O=C(NCC1CC1)c1nn(-c2cccc(Cl)c2)c2c1CCN(c1ccc3c(c1)C(=O)N(CC1CCOC1)CC3)C2=O (centres unmarked) [Example 1257, 1-(3-chlorophenyl)-N-(cyclopropylmethyl)-7-oxo-6-(1-oxo-2-((tetrahydrofuran-3-yl)methyl)-1,2,3,4-tetrahydroisoquinolin-7-yl)-4,5,6,7-tetrahydro-1H-pyrazolo[3,4-c]pyridine-3-carboxamide]
5 | 0.3 to 1 | > 40 | O=C(NCC1CCOC1)c1nn(-c2cccc(Cl)c2)c2c1CCN(c1ccc3c(c1)C(=O)N(CCO)CC3)C2=O (centres unmarked) [Example 1260, 1-(3-chlorophenyl)-6-(2-(2-hydroxyethyl)-1-oxo-1,2,3,4-tetrahydroisoquinolin-7-yl)-7-oxo-N-((tetrahydrofuran-3-yl)methyl)-4,5,6,7-tetrahydro-1H-pyrazolo[3,4-c]pyridine-3-carboxamide]
6 | 1 to 3 | 10 to 40 | Cc1cc(CNC(=O)c2nn(-c3cccc(Cl)c3)c3c2CCN(c2ccc4c(c2)N(C)C(=O)CC4)C3=O)nn1C [Example 1208, 1-(3-chlorophenyl)-N-((1,5-dimethyl-1H-pyrazol-3-yl)methyl)-6-(1-methyl-2-oxo-1,2,3,4-tetrahydroquinolin-7-yl)-7-oxo-4,5,6,7-tetrahydro-1H-pyrazolo[3,4-c]pyridine-3-carboxamide]
7 | 0.1 to 0.3 | 10 to 40 | CCN1CCOc2ccc(N3CCc4c(C(=O)NCC5CC5)nn(-c5cccc(Cl)c5)c4C3=O)cc2C1=O [Example 1374, 1-(3-chlorophenyl)-N-(cyclopropylmethyl)-6-(4-ethyl-5-oxo-2,3,4,5-tetrahydrobenzo[f][1,4]oxazepin-7-yl)-7-oxo-4,5,6,7-tetrahydro-1H-pyrazolo[3,4-c]pyridine-3-carboxamide]
8 | 0.01 to 0.1 | 10 to 40 | COc1ccnc(CNC(=O)c2nn(-c3cccc(Cl)c3)c3c2CCN(c2ccc4c(c2)CN(CCO)CC4)C3=O)c1 [Example 1230, 1-(3-chlorophenyl)-6-(2-(2-hydroxyethyl)-1,2,3,4-tetrahydroisoquinolin-7-yl)-N-((4-methoxypyridin-2-yl)methyl)-7-oxo-4,5,6,7-tetrahydro-1H-pyrazolo[3,4-c]pyridine-3-carboxamide]
9 | 0.1 to 0.3 | > 40 | CN1CCc2ccc(N3CCc4c(C(=O)N[C@@H](CO)C5CC5)nn(-c5cccc(Cl)c5)c4C3=O)cc2C1=O [Example 1404, (R)-1-(3-chlorophenyl)-N-(1-cyclopropyl-2-hydroxyethyl)-6-(2-methyl-1-oxo-1,2,3,4-tetrahydroisoquinolin-7-yl)-7-oxo-4,5,6,7-tetrahydro-1H-pyrazolo[3,4-c]pyridine-3-carboxamide]
10 | 0.3 to 1 | > 4 | Cc1cc(CNC(=O)c2nn(-c3cccc(Cl)c3)c3c2CCN(c2ccc4c(c2)C(=O)N(CC(=O)O)CC4)C3=O)nn1C [Example 1331, 2-(7-(1-(3-chlorophenyl)-3-(((1,5-dimethyl-1H-pyrazol-3-yl)methyl)carbamoyl)-7-oxo-1,4,5,7-tetrahydro-6H-pyrazolo[3,4-c]pyridin-6-yl)-1-oxo-3,4-dihydroisoquinolin-2(1H)-yl)acetic acid]
11 | 10 to 40 | > 40 | CCNC(=O)c1nn(-c2cccc(Cl)c2)c2c1CCN(c1cccc(N3C(=O)CC[C@H]3C)c1)C2=O [Example 1397, (R)-1-(3-chlorophenyl)-N-ethyl-6-(3-(2-methyl-5-oxopyrrolidin-1-yl)phenyl)-7-oxo-4,5,6,7-tetrahydro-1H-pyrazolo[3,4-c]pyridine-3-carboxamide]
12 | 3 to 10 | > 40 | CCNC(=O)c1nn(-c2cccc(Cl)c2)c2c1CCN(c1ccc3c(c1)C(=O)N(CCO)[C@H](C)CO3)C2=O [Example 1392, (R)-1-(3-chlorophenyl)-N-ethyl-6-(4-(2-hydroxyethyl)-3-methyl-5-oxo-2,3,4,5-tetrahydrobenzo[f][1,4]oxazepin-7-yl)-7-oxo-4,5,6,7-tetrahydro-1H-pyrazolo[3,4-c]pyridine-3-carboxamide]
13 | 0.01 to 0.1 | 10 to 40 | Cc1ccncc1CNC(=O)c1nn(-c2cccc(Cl)c2)c2c1CCN(c1cc3c(cc1F)CCN(CCO)C3)C2=O [Example 1134, 1-(3-Chlorophenyl)-6-(6-fluoro-2-(2-hydroxyethyl)-1,2,3,4-tetrahydroisoquinolin-7-yl)-N-((4-methylpyridin-3-yl)methyl)-7-oxo-4,5,6,7-tetrahydro-1H-pyrazolo[3,4-c]pyridine-3-carboxamide]
14 | 0.01 to 0.1 | > 40 | Cc1ccncc1CNC(=O)c1nn(-c2cccc(Cl)c2)c2c1CCN(c1cccc(CN3CCCCC3)c1)C2=O [Example 1177, 1-(3-chlorophenyl)-N-((4-methylpyridin-3-yl)methyl)-7-oxo-6-(3-(piperidin-1-ylmethyl)phenyl)-4,5,6,7-tetrahydro-1H-pyrazolo[3,4-c]pyridine-3-carboxamide]
15 | 0.01 to 0.1 | 1 to 3 | COc1ccc(CNC(=O)c2nn(-c3cccc(Cl)c3)c3c2CCN(c2ccc4c(c2)CN(C)CC4)C3=O)cn1 [Example 1135, 1-(3-chlorophenyl)-N-((6-methoxypyridin-3-yl)methyl)-6-(2-methyl-1,2,3,4-tetrahydroisoquinolin-7-yl)-7-oxo-4,5,6,7-tetrahydro-1H-pyrazolo[3,4-c]pyridine-3-carboxamide]
16 | 0.01 to 0.1 | 3 to 10 | CCN1CCc2cc(F)c(N3CCc4c(C(=O)NCc5cc(C6CC6)n[nH]5)nn(-c5cccc(Cl)c5)c4C3=O)cc2C1 [Example 1234, 1-(3-chlorophenyl)-N-((3-cyclopropyl-1H-pyrazol-5-yl)methyl)-6-(2-ethyl-6-fluoro-1,2,3,4-tetrahydroisoquinolin-7-yl)-7-oxo-4,5,6,7-tetrahydro-1H-pyrazolo[3,4-c]pyridine-3-carboxamide]
